Legend:
[1] = biological target: GDP-bound NRAS wild-type protein (Homo sapiens, UniProt P01111); assay: Binding to NRAS by surface plasmon resonance (SPR), Single Cycle Kinetics; details: SPR; KD ratio class
[2] = biological target: GDP-bound HRAS wild-type protein (Homo sapiens, UniProt P01112); assay: Binding to HRAS by surface plasmon resonance (SPR), Single Cycle Kinetics; details: SPR; KD ratio class
[3] = test system: human lung cancer strain NCI-H441; assay: cells; details: NCI-H441, 96 h, read-out: NCI-H441 IC50 (nM)

Chain of GDP-bound HRAS wild-type protein (P01112 whole entry): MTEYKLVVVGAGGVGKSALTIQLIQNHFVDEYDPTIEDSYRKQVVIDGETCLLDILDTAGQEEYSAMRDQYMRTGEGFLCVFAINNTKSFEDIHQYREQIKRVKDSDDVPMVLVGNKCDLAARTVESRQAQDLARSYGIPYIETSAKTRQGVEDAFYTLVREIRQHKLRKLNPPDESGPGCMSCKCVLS
Chain of GDP-bound NRAS wild-type protein (P01111 whole entry): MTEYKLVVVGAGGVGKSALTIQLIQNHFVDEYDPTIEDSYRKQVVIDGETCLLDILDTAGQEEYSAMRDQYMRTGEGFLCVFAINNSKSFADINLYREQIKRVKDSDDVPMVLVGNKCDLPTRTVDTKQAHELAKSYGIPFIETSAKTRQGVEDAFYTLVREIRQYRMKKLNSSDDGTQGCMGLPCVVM

Compound	NRAS/KRAS (ratio of KD value for GDP-bound NRAS wild-type protein to KD value for KRAS) [1]	HRAS/KRAS (ratio of KD value for GDP-bound HRAS wild-type protein to KD value for KRAS) [2]	IC50 [3] [nM]
CCCOC[C@H]1C(=O)N[C@@H]([C@@H](C)CC)C(=O)N(C)CC(=O)N(C)[C@H]2C/C=C\CCN(C2=O)[C@@H](Cc2ccc(C(F)(F)F)cc2)C(=O)N(C)CC(=O)N[C@@H](CCc2cc(F)c(C(F)(F)F)c(F)c2)C(=O)N2C[C@H](OCC)C[C@H]2C(=O)NC2(CC(C)(C)C2)C(=O)N(C)[C@@H](C2CCCC2)C(=O)N(C)[C@H](C(=O)N(C)CC)CC(=O)N1C [PP1572]	A (a compound having 10 or more and less than 20 is denoted as A)	A (a compound having 10 or more and less than 20 is denoted as A)	3.6
CCO[C@@H]1C[C@H]2C(=O)NC3(CCCC3)C(=O)N(C)[C@@H](C(CC)CC)C(=O)N(C)[C@H](C(=O)N3CCCC3)CC(=O)N(C)[C@@H](C)C(=O)N[C@@H]([C@@H](C)CC)C(=O)N(C)CC(=O)N(C)[C@H]3C/C=C\CCN(C3=O)[C@@H](CC3CCC(F)(F)CC3)C(=O)N(C)CC(=O)N[C@@H](CCc3cc(F)c(C(F)(F)F)c(F)c3)C(=O)N2C1 [PP1437]	A (a compound having 10 or more and less than 20 is denoted as A)	A (a compound having 10 or more and less than 20 is denoted as A)	220
CCO[C@@H]1C[C@H]2C(=O)NC3(CCC3)C(=O)N(C)[C@@H](C3CCCC3)C(=O)N(C)[C@H](C(=O)N3CCOCC3)CC(=O)N(C)[C@@H](C)C(=O)N[C@@H]([C@@H](C)CC)C(=O)N(C)CC(=O)N(C)[C@H]3C/C=C\CCN(C3=O)[C@@H](Cc3ccc(C(F)(F)F)cc3)C(=O)N(C)CC(=O)N[C@@H](CCc3cc(F)c(C(F)(F)F)c(F)c3)C(=O)N2C1 [PP1284]	AA (a compound having 20 or more is denoted as AA)	A (a compound having 10 or more and less than 20 is denoted as A)	54.8
CCO[C@@H]1C[C@H]2C(=O)NC3(CCC3)C(=O)N(C)[C@@H](C3CCCC3)C(=O)N(C)[C@H](C(=O)N3CCOCC3)CC(=O)N(C)[C@@H](CC)C(=O)N[C@@H]([C@@H](C)CC)C(=O)N(C)CC(=O)N(C)[C@H]3CC[C@@H](C)CN(C3=O)[C@@H](Cc3ccc(C(F)(F)F)cc3)C(=O)N(C)CC(=O)N[C@@H](CCc3cc(F)c(C(F)(F)F)c(F)c3)C(=O)N2C1 [PP1372]	B (a compound having 3 or more and less than 10 is denoted as B)	B (a compound having 3 or more and less than 10 is denoted as B)	5
CC[C@H](C)[C@@H]1NC(=O)[C@H](CC2CC2)N(C)C(=O)C[C@@H](C(=O)N2CCCC2)N(C)C(=O)[C@H](C2CCCC2)N(C)C(=O)C2(CCCC2)NC(=O)[C@@H]2C[C@@H](C(F)(F)F)CN2C(=O)[C@H](CCc2cc(F)c(C(F)(F)F)c(F)c2)NC(=O)CN(C)C(=O)[C@H](Cc2ccc(F)cc2)N2CC/C=C\C[C@@H](C2=O)N(C)C(=O)CN(C)C1=O [PP1509]	A (a compound having 10 or more and less than 20 is denoted as A)	A (a compound having 10 or more and less than 20 is denoted as A)	67.9
CC[C@H](C)[C@@H]1NC(=O)[C@H](CC)N(C)C(=O)C[C@@H](C(=O)N(C)C)N(C)C(=O)[C@H](C2CCCC2)N(C)C(=O)C2(CCC2)NC(=O)[C@@H]2C[C@H](C)CN2C(=O)[C@H](CCc2cc(F)c(C(F)(F)F)c(F)c2)NC(=O)CN(C)C(=O)[C@H](CC2CCCCC2)N2CC/C=C\C[C@@H](C2=O)N(C)C(=O)CN(C)C1=O [PP1471]	A (a compound having 10 or more and less than 20 is denoted as A)	A (a compound having 10 or more and less than 20 is denoted as A)	48.2
CCO[C@@H]1C[C@H]2C(=O)NC3(CCC3)C(=O)N(C)[C@@H](C3CCCC3)C(=O)N(C)[C@H](C(=O)N(C)C)CC(=O)N(C)[C@@H](CC3CCC3)C(=O)N[C@@H]([C@@H](C)CC)C(=O)N(C)CC(=O)N(C)[C@H]3C/C=C\CCN(C3=O)[C@@H](CC3CCCCC3)C(=O)N(C)CC(=O)N[C@@H](CCc3cc(F)c(C(F)(F)F)c(F)c3)C(=O)N2C1 [PP1469]	A (a compound having 10 or more and less than 20 is denoted as A)	A (a compound having 10 or more and less than 20 is denoted as A)	22.2
CCCCCC[C@H]1C(=O)N[C@@H]([C@@H](C)CC)C(=O)N(C)CC(=O)N(C)[C@H]2C/C=C\CCN(C2=O)[C@@H](Cc2ccc(C(F)(F)F)cc2)C(=O)N(C)CC(=O)N[C@@H](CCc2ccc3sccc3c2)C(=O)N2C[C@H](OCC)C[C@H]2C(=O)NC2(CCC2)C(=O)N(C)[C@@H](C2CCCC2)C(=O)N(C)[C@H](C(=O)N(C)C)CC(=O)N1C [PP1259]	A (a compound having 10 or more and less than 20 is denoted as A)	A (a compound having 10 or more and less than 20 is denoted as A)	62
CCO[C@@H]1C[C@H]2C(=O)NC3(CCC3)C(=O)N(C)[C@@H](C3CCCC3)C(=O)N(C)[C@H](C(=O)N(C)C)CC(=O)N(C)[C@@H](CC(C)(C)C)C(=O)N[C@@H]([C@@H](C)CC)C(=O)N(C)CC(=O)N(C)[C@H]3C/C=C\CCN(C3=O)[C@@H](CC3CCCCC3)C(=O)N(C)CC(=O)N[C@@H](CCc3cc(F)c(C(F)(F)F)c(F)c3)C(=O)N2C1 [PP1474]	A (a compound having 10 or more and less than 20 is denoted as A)	A (a compound having 10 or more and less than 20 is denoted as A)	48.2
CCO[C@@H]1C[C@H]2C(=O)NC3(CCC3)C(=O)N(C)[C@@H](C3CCCC3)C(=O)N(C)[C@H](C(=O)N(C)C)CC(=O)N(C)[C@@H](CC3CC3)C(=O)N[C@@H]([C@@H](C)CC)C(=O)N(C)CC(=O)N(C)[C@H]3C/C=C\CCN(C3=O)[C@@H](Cc3ccc(C)cc3)C(=O)N(C)CC(=O)N[C@@H](CCc3ccc(Cl)c(Cl)c3)C(=O)N2C1 [PP1485]	A (a compound having 10 or more and less than 20 is denoted as A)	A (a compound having 10 or more and less than 20 is denoted as A)	30.5
CCCC[C@H]1C(=O)N[C@@H]([C@@H](C)CC)C(=O)N(C)CC(=O)N(C)[C@H]2C/C=C\CCN(C2=O)[C@@H](Cc2ccc(C(F)(F)F)cc2)C(=O)N(C)CC(=O)N[C@@H](CCc2cc(F)c(C(F)(F)F)c(F)c2)C(=O)N2C[C@H](OCC)C[C@H]2C(=O)NC2(CCC2)C(=O)N(C)[C@@H](C2CCCC2)C(=O)N(C)[C@H](C(=O)N(C)CC)CC(=O)N1C [PP1558]	A (a compound having 10 or more and less than 20 is denoted as A)	B (a compound having 3 or more and less than 10 is denoted as B)	3.4
CCO[C@@H]1C[C@H]2C(=O)NC3(CCC3)C(=O)N(C)[C@@H](C3CCCC3)C(=O)N(C)[C@H](C(C)C)CC(=O)N(C)[C@@H](CC)C(=O)N[C@@H]([C@@H](C)CC)C(=O)N(C)CC(=O)N(C)[C@H]3C/C=C\CCN(C3=O)[C@@H](CC3CCCCC3)C(=O)N(C)CC(=O)N[C@@H](CCc3cc(F)c(C(F)(F)F)c(F)c3)C(=O)N2C1 [PP1601]	B (a compound having 3 or more and less than 10 is denoted as B)	A (a compound having 10 or more and less than 20 is denoted as A)	78.6
CCO[C@@H]1C[C@H]2C(=O)NC3(CCC3)C(=O)N(C)[C@@H](C3CCCC3)C(=O)N(C)[C@H](C(=O)N3CCCCC3)CC(=O)N(C)[C@@H](CC(C)C)C(=O)N[C@@H]([C@@H](C)CC)C(=O)N(C)CC(=O)N(C)[C@H]3C/C=C\CCN(C3=O)[C@@H](Cc3ccc(C(F)(F)F)cc3)C(=O)N(C)CC(=O)N[C@@H](CCc3cc(F)c(C(F)(F)F)c(F)c3)C(=O)N2C1 [PP1290]	AA (a compound having 20 or more is denoted as AA)	A (a compound having 10 or more and less than 20 is denoted as A)	15.4
CCO[C@@H]1C[C@H]2C(=O)NC3(CCC3)C(=O)N(C)[C@@H](C(CC)CC)C(=O)N(C)[C@H](C(=O)N(C)C)CC(=O)N(C)[C@@H](CC(C)C)C(=O)N[C@@H]([C@@H](C)CC)C(=O)N(C)CC(=O)N(C)[C@H]3C/C=C\CCN(C3=O)[C@@H](CC3CCC(F)(F)CC3)C(=O)N(C)CC(=O)N[C@@H](CCc3cc(F)c(C(F)(F)F)c(F)c3)C(=O)N2C1 [PP1433]	AA (a compound having 20 or more is denoted as AA)	A (a compound having 10 or more and less than 20 is denoted as A)	44.4
